Experimental data published in patent US20080153849A1, “Process for the Preparation of Crystalline (6Rrs)-N(5)-Formyl-5,6,7,8-Tetrahydrofolic Acid” (priority 2004, published 2008).

Experiment: Storage stability of the solid in a refrigerator (HPLC assay and purity)
Format: physicochemical
Details: for Assay (HPLC) / Purity (HPLC): solid stored at 2° C. to 8° C.
Experimental: This solid was stored at a temperature from 2° C. to 8° C. in a refrigerator. Thereby the following stability dates were obtained for this solid: […]

| Assay (HPLC) (time 0 months) | Purity (HPLC) (time 0 months) | Assay (HPLC) (time 3 months) | Purity (HPLC) (time 3 months) | Assay (HPLC) (time 6 months) | Purity (HPLC) (time 6 months) | Assay (HPLC) (time 9 months) | Purity (HPLC) (time 9 months) | Assay (HPLC) (time 12 months) | Purity (HPLC) (time 12 months) | Assay (HPLC) (time 1 month) | Purity (HPLC) (time 1 month) | Assay (HPLC) (time 2 months) | Purity (HPLC) (time 2 months) | SMILES | Stability of the solid compared with crystalline (6RS)-folinic acid (general statement in words) |
| --- | --- | --- | --- | --- | --- | --- | --- | --- | --- | --- | --- | --- | --- | --- | --- |
| 99.4% | 99.78% | 99.0% | 99.79% | 99.1% | 99.75% | 100.2% | 99.82% | 99.9% | 99.79%. | – | – | – | – | Nc1nc2c(c(=O)[nH]1)N(C=O)C(CNc1ccc(C(=O)N[C@@H](CCC(=O)O)C(=O)O)cc1)CN2 (mixture of isomers) [Example 1, (6RS)-N(5)-formyl-5,6,7,8-tetrahydrofolic acid] | – |
| 99.0% | 99.2% | 98.9% | 98.9% | 98.1% | 98.4% | – | – | 97.8% | 97.2%. | 98.5% | 99.0% | 98.1% | 98.9% | Nc1nc2c(c(=O)[nH]1)N(C=O)[C@@H](CNc1ccc(C(=O)N[C@@H](CCC(=O)O)C(=O)O)cc1)CN2 [Example 2, (6S)-N(5)-formyl-5,6,7,8-tetrahydrofolic acid] | stability comparable with the crystalline (6RS)-folinic acid |
